Results reported in patent US20130183459A1, “DEVICE AND METHOD FOR I[…] AND COUNTING MICROBES AND DETERMINING ANTIMICROBIAL SENSITIVITY” (priority 2011, published 2013).

Tested on: E. Coli B
Assay: Antimicrobial sensitivity test by resistance signature (pulsed-voltage sampling)
Assay type: cell-based
Settings: 0.9 mL of 10^3 CFU/mL E. Coli B in LB Broth + 0.1 mL antibiotic, room temperature; control slope remains negative; FIGS. 7A-7D
Method: FIGS. 7A-7D depict signatures of microbial sample of 0.9 mL of a concentration of 10^3 CFU/mL of two-hour E. Coli B treated with 0.1 mL of antibiotics or antimicrobials and control samples in the absence thereof. What is common to all FIGS. 7A-7D is the slope for signatures with antibiotics or antimicrobials become positive, i.e., the resistance of the microbial sample increases, upon addition of the antibiotic or antimicrobial. The slope of the control samples remains negative.
In further detail, a difference in the degree of the slope change for the signature can be observed. Such differences are due to the type of antibiotic or antimicrobial, and its mechanism of action. For example, sulfamethoxazole, FIG. 7C, causes inhibition of DNA synthesis in the cell, thereby aiming essential cell functions. In contrast, azithromycin, FIG. 7B, inhibits […] in a bacterium, thereby acting on latent cell functions.
An overnight bacterial culture of E. coli B with a concentration of around 10^9 cells which had attained room temperature were diluted using LB Broth which had also attained room temperature to a final concentration of 10^3 cells. 0.9 ml of this solution was then placed into one sensor well which was connected to lead #1 of a reader unit. An additional 0.9 ml of the bacteria was placed into a second sensor well which was connected to lead #2 of a reader unit. […]

Cc1cc(NS(=O)(=O)c2ccc(N)cc2)no1 [sulfamethoxazole]
slope of the resistance signature upon addition of the antibiotic or antimicrobial: steeper than for azithromycin
